Test system: passive cutaneous anaphylaxis
Assay: Inhibition of passive cutaneous anaphylaxis (PCA test)
Type: in vivo, rats (Wistar)
Conditions: Rattus norvegicus, po; rats, p.o., 10 minutes before ovoalbumin challenge i.p.
Protocol: For example, the substances have an inhibiting action on the release of endogenic mediators from mast cells or basophilic leucocytes which leads to allergic reactions. The doses to be used vary, of course, depending on the nature of the substance used, on the mode of administration and on the condition to be treated. In general, however, satisfactory results are achieved in animal experiments with doses of from 0.05 to 75 mg. per kg of body weight.
Description of the test method to determine the inhibition of passive cutaneous anaphylaxis (PCA test, see Arch.int. pharmacology 252 (1981) 316-326).
To prepare the IgE-antiovoalbumin serum, used in the test, by the method of Mota (Immunology 7, (1964) 681) and J. Goose (Immunology 16 (1969) 749), male Wistar rats of 200-250 g. body weight were sensitised by subcutaneous injection of 1 mg. of ovoalbumin and 1 ml. of Bordatella pertussis suspension ("Vaxicoq" Merieux 3.10^10 organisms/ml.). After 14 days, the animals are exsanguinated and the blood is centrifuged. The antiserum thus obtained is stored at […].
Non-sensitised rats are injected, in each case, with 0.1 ml. of antiserum into the skin at four different places on their shaven backs. After 72 hours, a solution of the test compound or, for comparison, only the solvent, is administered orally, and 10 minutes later, 5 mg. of ovoalbumin and 5 mg. of blue dyestuff (Evans blue) in 0.9% strength NaCl solution are administered intraperitoneally. After 30 minutes, the animals are sacrificed and the diameters of the blue spots formed at the sites injected with antiserum are measured. The inhibiting effect of the test substance is determined from the size of the blue spots which appear.
The example numbers given for the compounds of the formula I relate to the preparation Examples below.

| Structure (SMILES) | ED50 [mg/kg] |
| --- | --- |
| O=c1cc(-c2ccccc2)n(-c2ccccc2)n1CCCN1CCN(c2ccccn2)CC1 [Example 1, 1,5-Diphenyl-2-{3-[4-(2-pyridyl)-piperazin-1-yl]-propyl}-pyrazolin-3-one] | 0.8 |
| O=c1cc(-c2ccc(Cl)cc2)n(-c2ccccc2)n1CCCN1CCN(c2ccccn2)CC1 [Example 13] | 8.5 |
| O=c1cc(-c2ccccc2)n(-c2ccccc2)n1CCCN1CCN(c2ccc(F)cc2)CC1 [Example 22] | 9.8 |
| Cc1ccnc(N2CCN(CCCn3c(=O)cc(-c4ccccc4)n3-c3ccccc3)CC2)c1 [Example 27] | 8.2 |
